Source: patent EP1561465A2, “Methods of use of fluoroquinolone compounds against bacteria” (LG Life Sciences, Ltd., priority 1999, dated 2001)
Converted amounts (≈) assume the structure as drawn. Read-outs that look alike come from different tables or passages of the source.

Tests used:
Test in all cases: MIC by agar dilution (NCCLS M7-A4), 288 enteropathogenic isolates, gemifloxacin and 15 other antimicrobials
Salmonella spp. = type: cell-based; settings: for % Susceptible / MIC (mg/L) 50% / MIC (mg/L) 90% / MIC (mg/L) Range: Salmonella spp. N= 106; for susceptible isolates: breakpoints; for MIC: Salmonella
Hafnia alvei = type: cell-based; settings: for % Susceptible / MIC (mg/L) 50% / MIC (mg/L) 90% / MIC (mg/L) Range / MIC: Hafnia alvei N= 32
Yersinia enterocolitica = type: cell-based; settings: for % Susceptible / MIC (mg/L) 50% / MIC (mg/L) 90% / MIC (mg/L) Range / MIC: Yersinia enterocolitica N= 22
Shigella spp. = type: cell-based; settings: for % Susceptible / MIC (mg/L) 50% / MIC (mg/L) 90% / MIC (mg/L) Range / MIC: Shigella spp. N= 21; for susceptible isolates: Shigella spp., breakpoints
Procedure: [A. hydrophila (12), and A. sobria (4)], and 91 Campylobacter jejuni. […] The strains were stored in skimmed-milk at -80 °C until studied.
The plates were incubated aerobically at 35 °C for 24 h, except for Campylobacter jejuni, where a microaerophilic atmosphere was obtained by using Campy Pack (Becton Dickinson, Cockeysville, MD, USA), and incubation was for 48 h. All organisms were tested with an inoculum of ≅ 10^4 cfu/spot. MICs were defined as the lower antibiotic concentration with no visible growth.

Aeromonas spp. = type: cell-based; settings: for % Susceptible / MIC (mg/L) 50% / MIC (mg/L) 90% / MIC (mg/L) Range / MIC: Aeromonas spp. N= 16
Campylobacter jejuni = settings: for % Susceptible / MIC (mg/L) 50% / MIC (mg/L) 90% / MIC (mg/L) Range: Campylobacter jejuni N= 91; for MIC: Campylobacter jejuni
[1] = read-out: MIC (mg/L) 50%, Salmonella spp. N= 106
[2] = read-out: MIC (mg/L) 90%, Salmonella spp. N= 106
[3] = 24 h, read-out: MIC (mg/L) Range

Question: Which isolates being resistant (Salmonella spp.; Salmonella spp.) does the source give for gentamicin here?
Answer: 4%

Question: What about the “% Susceptible” value (Salmonella spp.) of the same compound?
Answer: 96%

Question: What about the “MIC (mg/L) 50%” value (Salmonella spp.) of the same compound?
Answer: 0.25 mg/L

Question: And the “MIC (mg/L) 90%” value (Salmonella spp.)?
Answer: 0.5 mg/L

Question: And the “MIC (mg/L) Range” value (Salmonella spp.)?
Answer: 0.12 to 128 mg/L

Question: What about the “% Susceptible” value (Hafnia alvei) of the same compound?
Answer: 100%

Question: What about the “MIC (mg/L) 50%” value (Hafnia alvei) of the same compound?
Answer: 0.25 mg/L

Question: What about the “MIC (mg/L) 90%” value (Hafnia alvei) of the same compound?
Answer: 0.5 mg/L

Question: What about the “MIC (mg/L) Range” value (Hafnia alvei) of the same compound?
Answer: 0.25 to 0.5 mg/L

Question: What about the “% Susceptible” value (Yersinia enterocolitica) of the same compound?
Answer: 100%

Question: What about the “MIC (mg/L) 50%” value (Yersinia enterocolitica) of the same compound?
Answer: 1 mg/L

Question: And the “MIC (mg/L) 90%” value (Yersinia enterocolitica)?
Answer: 1 mg/L

Question: And the “MIC (mg/L) Range” value (Yersinia enterocolitica)?
Answer: 0.5 to 1 mg/L

Question: What about the “% Susceptible” value (Shigella spp.) of the same compound?
Answer: 100%

Question: And the “MIC (mg/L) 50%” value (Shigella spp.)?
Answer: 1 mg/L

Question: And the “MIC (mg/L) 90%” value (Shigella spp.)?
Answer: 1 mg/L

Question: What about the “MIC (mg/L) Range” value (Shigella spp.) of the same compound?
Answer: 0.5 to 1 mg/L

Question: And the “% Susceptible” value (Aeromonas spp.)?
Answer: 100%

Question: What about the “MIC (mg/L) 50%” value (Aeromonas spp.) of the same compound?
Answer: 0.5 mg/L

Question: And the “MIC (mg/L) 90%” value (Aeromonas spp.)?
Answer: 1 mg/L

Question: And the “MIC (mg/L) Range” value (Aeromonas spp.)?
Answer: 0.25 to 1 mg/L

Question: What about the “% Susceptible” value (Campylobacter jejuni) of the same compound?
Answer: 100%

Question: What about the “MIC (mg/L) 50%” value (Campylobacter jejuni) of the same compound?
Answer: 0.25 mg/L

Question: And the “MIC (mg/L) 90%” value (Campylobacter jejuni)?
Answer: 0.5 mg/L

Question: What about the “MIC (mg/L) Range” value (Campylobacter jejuni) of the same compound?
Answer: 0.12 to 1 mg/L

Question: How did the “% Susceptible” value (Salmonella spp.) turn out when colistin was run?
Answer: 32%

Question: And the “MIC (mg/L) 50%” value (Salmonella spp.)?
Answer: 8 mg/L

Question: And the “MIC (mg/L) 90%” value (Salmonella spp.)?
Answer: 8 mg/L

Question: What about the susceptible isolates (Salmonella spp.; Salmonella spp.) of the same compound?
Answer: 32%

Question: And the “% Susceptible” value (Hafnia alvei)?
Answer: 6%

Question: And the “MIC (mg/L) 50%” value (Hafnia alvei)?
Answer: 8 mg/L

Question: And the “MIC (mg/L) 90%” value (Hafnia alvei)?
Answer: 16 mg/L

Question: What about the “MIC (mg/L) Range” value (Hafnia alvei) of the same compound?
Answer: 0.5 to 16 mg/L

Question: What about the “% Susceptible” value (Yersinia enterocolitica) of the same compound?
Answer: 100%

Question: What about the “MIC (mg/L) 50%” value (Yersinia enterocolitica) of the same compound?
Answer: 1 mg/L

Question: What about the “MIC (mg/L) 90%” value (Yersinia enterocolitica) of the same compound?
Answer: 1 mg/L

Question: And the “MIC (mg/L) Range” value (Yersinia enterocolitica)?
Answer: 0.5 to 1 mg/L

Question: What about the “% Susceptible” value (Shigella spp.) of the same compound?
Answer: 100%

Question: What about the “MIC (mg/L) 50%” value (Shigella spp.) of the same compound?
Answer: 0.25 mg/L

Question: And the “MIC (mg/L) 90%” value (Shigella spp.)?
Answer: 0.25 mg/L

Question: And the “MIC (mg/L) Range” value (Shigella spp.)?
Answer: 0.25 mg/L

Question: What about the “% Susceptible” value (Aeromonas spp.) of the same compound?
Answer: 81%

Question: What about the “MIC (mg/L) 50%” value (Aeromonas spp.) of the same compound?
Answer: 2 mg/L

Question: And the “MIC (mg/L) 90%” value (Aeromonas spp.)?
Answer: 4 mg/L

Question: And the “MIC (mg/L) Range” value (Aeromonas spp.)?
Answer: 0.25 to 32 mg/L

Question: What about the “% Susceptible” value (Campylobacter jejuni) of the same compound?
Answer: 3%

Question: And the “MIC (mg/L) 50%” value (Campylobacter jejuni)?
Answer: 4 mg/L

Question: And the “MIC (mg/L) 90%” value (Campylobacter jejuni)?
Answer: 8 mg/L

Question: What about the “MIC (mg/L) Range” value (Campylobacter jejuni) of the same compound?
Answer: 1 to 32 mg/L

Question: What does the source list for `CO/N=C(\C(=O)N[C@@H]1C(=O)N2C(C(=O)O)=C(COC(C)=O)CS[C@H]12)c1csc(N)n1` [Cefotaxime, cefotaxime]?
Answer: MIC (mg/L) Range (Salmonella spp.): 0.06 to 0.5 mg/L; susceptible isolates (Salmonella spp.; Salmonella spp.): 100%; MIC (Salmonella spp.; [1]): 0.12 mg/L (≈ 0.263 µM); MIC (Salmonella spp.; [2]): 0.12 mg/L (≈ 0.263 µM); MIC (Hafnia alvei; [3]): 0.12 to 0.5 mg/L (≈ 0.263 to 1.1 µM); susceptible isolates (Hafnia alvei; Hafnia alvei, breakpoints): 100%; MIC (Hafnia alvei; read-out: MIC (mg/L) 50%): 0.25 mg/L (≈ 0.549 µM); MIC (Hafnia alvei; read-out: MIC (mg/L) 90%): 0.5 mg/L (≈ 1.1 µM); MIC (Yersinia enterocolitica; [3]): 0.06 to 0.12 mg/L (≈ 0.132 to 0.263 µM); susceptible isolates (Yersinia enterocolitica; Yersinia enterocolitica, breakpoints): 100%; MIC (Yersinia enterocolitica; read-out: MIC (mg/L) 50%): 0.06 mg/L (≈ 0.132 µM); MIC (Yersinia enterocolitica; read-out: MIC (mg/L) 90%): 0.06 mg/L (≈ 0.132 µM); MIC (Shigella spp.; [3]): 0.015 to 0.03 mg/L (≈ 0.0329 to 0.0659 µM); susceptible isolates (Shigella spp.): 100%; MIC (Shigella spp.; read-out: MIC (mg/L) 50%): ≤ 0.015 mg/L; MIC (Shigella spp.; read-out: MIC (mg/L) 90%): 0.03 mg/L (≈ 0.0659 µM); MIC (mg/L) Range (Aeromonas spp.): ≤0.015 to 0.12 mg/L; susceptible isolates (Aeromonas spp.; Aeromonas spp., breakpoints): 100%; MIC (Aeromonas spp.; read-out: MIC (mg/L) 50%): 0.03 mg/L (≈ 0.0659 µM); MIC (Aeromonas spp.; read-out: MIC (mg/L) 90%): 0.12 mg/L (≈ 0.263 µM); susceptible isolates (Campylobacter jejuni; C. jejuni, breakpoints): 57%; MIC (mg/L) Range (Campylobacter jejuni): 2 to 32 mg/L; MIC (Campylobacter jejuni; read-out: MIC (mg/L) 50%): 8 mg/L (≈ 17.6 µM); MIC (Campylobacter jejuni; read-out: MIC (mg/L) 90%): 16 mg/L (≈ 35.1 µM)

Question: What does the source list for `CC1(C)S[C@@H]2[C@H](NC(=O)[C@H](N)c3ccccc3)C(=O)N2[C@H]1C(=O)O` [ampicillin]?
Answer: Rates of non-susceptible microorganisms (Salmonella spp.; Salmonella spp.): 23%; susceptible isolates (Salmonella spp.; Salmonella spp.): 77%; MIC (Salmonella spp.; [1]): 4 mg/L (≈ 11.4 µM); MIC (Salmonella spp.; [2]): > 128 mg/L; MIC (Hafnia alvei; [3]): 2 to 64 mg/L (≈ 5.72 to 183 µM); MIC (Hafnia alvei; read-out: MIC (mg/L) 50%): 16 mg/L (≈ 45.8 µM); MIC (Hafnia alvei; read-out: MIC (mg/L) 90%): 64 mg/L (≈ 183 µM); MIC (Yersinia enterocolitica; [3]): 32 to 64 mg/L (≈ 91.6 to 183 µM); susceptibility of isolates (Yersinia enterocolitica; Yersinia enterocolitica): non susceptible; MIC (Yersinia enterocolitica; read-out: MIC (mg/L) 50%): 32 mg/L (≈ 91.6 µM); MIC (Yersinia enterocolitica; read-out: MIC (mg/L) 90%): 64 mg/L (≈ 183 µM); susceptible isolates (Shigella spp.): 43%; MIC (Shigella spp.; read-out: MIC (mg/L) 50%): 64 mg/L (≈ 183 µM); MIC (Shigella spp.; read-out: MIC (mg/L) 90%): > 128 mg/L; susceptibility of isolates (Aeromonas spp.; Aeromonas spp.): non susceptible; MIC (Aeromonas spp.; read-out: MIC (mg/L) 50%): > 128 mg/L; MIC (Aeromonas spp.; read-out: MIC (mg/L) 90%): > 128 mg/L; MIC (Campylobacter jejuni; read-out: MIC (mg/L) 50%): 8 mg/L (≈ 22.9 µM); MIC (Campylobacter jejuni; read-out: MIC (mg/L) 90%): 32 mg/L (≈ 91.6 µM)
